Measurements published in ChEMBL document CHEMBL1149973, “Inhibitory stereochemistry of N-chloroacetyl-N-hydroxyleucine methyl ester for thermolysin” (Bioorg Med Chem Lett, 1996).

How the values were obtained:
Thermolysin = target: T1, Thermolysin (Bacillus thermoproteolyticus, UniProt P00800); assay: Inhibitory activity against thermolysin expressed as Ki
T1 sequence (P00800 whole entry): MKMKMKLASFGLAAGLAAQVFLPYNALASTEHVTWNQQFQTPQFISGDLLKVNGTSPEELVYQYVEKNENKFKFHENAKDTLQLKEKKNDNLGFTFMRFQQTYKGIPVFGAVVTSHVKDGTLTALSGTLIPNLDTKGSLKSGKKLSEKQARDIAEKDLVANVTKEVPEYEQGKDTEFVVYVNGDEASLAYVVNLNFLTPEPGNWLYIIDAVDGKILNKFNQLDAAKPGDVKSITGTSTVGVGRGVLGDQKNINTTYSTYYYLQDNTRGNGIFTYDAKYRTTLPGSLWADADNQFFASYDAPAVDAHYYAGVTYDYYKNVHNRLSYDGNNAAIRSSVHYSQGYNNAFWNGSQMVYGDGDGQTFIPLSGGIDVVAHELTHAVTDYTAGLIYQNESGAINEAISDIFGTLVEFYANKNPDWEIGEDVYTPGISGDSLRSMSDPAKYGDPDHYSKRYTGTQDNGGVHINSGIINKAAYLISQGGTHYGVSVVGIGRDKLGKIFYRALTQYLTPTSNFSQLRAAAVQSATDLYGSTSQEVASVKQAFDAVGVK

[1] = target: T2, Thermolysin (Bacillus thermoproteolyticus) (UniProt P00800); assay: Inhibitory activity against thermolysin expressed as kinact
T2 sequence (whole entry): T1 sequence (P00800 whole entry)

Row | SMILES | Ki (Thermolysin) [mM] | K inact [1] [s⁻¹]
1 | COC(=O)[C@H](CC(C)C)N(O)C(=O)CCl | 4.5 | 0.009
2 | COC(=O)C(CC(C)C)N(O)C(=O)CCl (centres undefined) | 7.5 | 0.0075
